From patent publication US20090142411A1, “Composition and Device Comprising an Inorganic Component (Metal Compound) for Coagulation of Protein-Containing Fluids” (SMITH & NEPHEW, PLC, priority 2005, published 2009)

Key:
[1] = coagulation of heat-inactivated foetal calf serum
Procedure: (§1) The oxide powder was allowed to settle to the bottom of the vessel (0.5 ml capacity Eppendorf tube) and was left undisturbed for 2 hours. […] The vessel was left undisturbed for 24 h.

[2] = coagulation of chronic wound fluid
Procedure: as §1

[3] = coagulation of whole human blood; settings: 1-5 μl aliquots of 350 mg/ml solution, 100 μl whole human blood
Procedure: Examples 4-9 were repeated with 100 μl whole human blood in place of the bovine serum albumin solution.

[4] = coagulation of whole human saliva; settings: 5 gi aliquot of 350 mg/ml solution in PBS pH 7.4, 100 μl whole human saliva, 30 minutes
Procedure: (§2) The vessel was left undisturbed for 30 minutes.

gelatine = experiment: coagulation of gelatine solution; settings: 5 μl aliquot of 350 mg/ml solution, 100 μl gelatine solution 40 mg/ml in PBS, immediately
bovine serum albumin = bovine serum albumin (Bos taurus, UniProt P02769); experiment: coagulation of bovine serum albumin solution; settings: 10 mg powder in 100 μl bovine serum albumin 40 mg/ml in PBS pH 7.4, undisturbed 2 hours
Chain of bovine serum albumin (P02769 25-607): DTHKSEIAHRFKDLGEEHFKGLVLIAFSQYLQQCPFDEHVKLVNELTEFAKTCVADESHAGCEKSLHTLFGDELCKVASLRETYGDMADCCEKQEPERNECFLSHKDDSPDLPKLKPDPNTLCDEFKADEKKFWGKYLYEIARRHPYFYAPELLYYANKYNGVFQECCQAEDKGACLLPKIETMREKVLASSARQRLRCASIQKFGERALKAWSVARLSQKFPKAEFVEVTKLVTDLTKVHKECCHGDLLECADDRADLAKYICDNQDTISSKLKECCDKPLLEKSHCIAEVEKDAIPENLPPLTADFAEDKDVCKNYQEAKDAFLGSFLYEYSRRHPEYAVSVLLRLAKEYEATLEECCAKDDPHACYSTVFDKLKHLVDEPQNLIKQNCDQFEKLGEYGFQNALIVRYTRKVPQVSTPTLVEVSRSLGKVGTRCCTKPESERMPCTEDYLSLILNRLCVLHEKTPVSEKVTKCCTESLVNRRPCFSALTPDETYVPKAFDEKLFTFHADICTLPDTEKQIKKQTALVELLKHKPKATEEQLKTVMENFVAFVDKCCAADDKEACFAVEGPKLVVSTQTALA
Procedure: The oxide powder was allowed to settle to the bottom of the vessel (0.5 ml capacity Eppendorf tube) and was left undisturbed for 2 hours.
as §2, §2, §2, §2, §2
The vessel was left undisturbed for 24 h.

| Substance | coagulation, Examples 4-9 repeated ([1]; 1-5 μl aliquots of 350 mg/ml solution, 100 μl heat-inactivated foetal calf serum) | coagulation ([1]; 5 μl aliquot of 350 mg/ml solution, heat-inactivated foetal calf serum, 1.0 ml syringe, 24 h) | coagulation, Examples 4-9 repeated ([2]; 1-5 μl aliquots of 350 mg/ml solution, 100 μl chronic wound fluid) | coagulation ([2]; 5 μl aliquot of 350 mg/ml solution, chronic wound fluid, 1.0 ml syringe, 24 h) | coagulation, Examples 4-9 repeated [3] | coagulation [4] | coagulation / precipitate formation (gelatine) | coagulation (bovine serum albumin) | coagulation ([1]; 10 mg powder in 100 μl heat-inactivated foetal calf serum, undisturbed 2 hours) | coagulation ([2]; 10 mg powder in 100 μl chronic wound fluid, overnight) | coagulation ([2]; 10 mg powder in 100 μl chronic wound fluid, undisturbed 2 hours) |
| --- | --- | --- | --- | --- | --- | --- | --- | --- | --- | --- | --- |
| gold (III) chloride | The results were the same | the fluid coagulated | The results were the same | the fluid coagulated | The results were the same | a lightly coagulated, opaque mass of several millimetres thickness was formed | a fibrous precipitate was formed |  |  |  |  |
| gold (III) oxide [gold (III) oxide powder] |  |  |  |  |  |  |  | a coagulated, opaque mass of several millimetres thickness was formed | a coagulated, opaque mass of several millimetres thickness was formed | the entire fluid volume had coagulated | a coagulated, opaque mass of several millimetres thickness was formed |
